The record followed here is BindingDB's records for doi:10.1073/pnas.74.9.3805 (1977).

pKi: −log10 of the molar value. Where “and” joins values, the source holds several entries; their conditions need not be identical. Identical values can stand only once.

The target of the assay is Gamma-aminobutyric acid receptor subunit alpha-1 (Rattus norvegicus, UniProt P62813).
Gamma-aminobutyric acid receptor subunit alpha-1, sequence (P62813 whole entry): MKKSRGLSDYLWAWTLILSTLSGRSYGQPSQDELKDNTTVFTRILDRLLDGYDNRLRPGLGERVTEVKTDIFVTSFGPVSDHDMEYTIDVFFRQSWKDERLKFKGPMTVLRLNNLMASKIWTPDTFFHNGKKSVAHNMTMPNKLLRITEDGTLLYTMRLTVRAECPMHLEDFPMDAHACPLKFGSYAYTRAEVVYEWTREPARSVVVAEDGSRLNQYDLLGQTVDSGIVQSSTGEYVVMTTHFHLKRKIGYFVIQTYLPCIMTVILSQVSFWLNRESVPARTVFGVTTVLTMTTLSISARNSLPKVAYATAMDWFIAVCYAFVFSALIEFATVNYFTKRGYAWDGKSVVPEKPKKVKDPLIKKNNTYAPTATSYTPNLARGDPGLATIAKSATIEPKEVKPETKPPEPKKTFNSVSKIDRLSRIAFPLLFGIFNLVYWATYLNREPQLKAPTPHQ

In the case of `O=C1CN=C(c2ccccc2Cl)c2cc([N+](=O)[O-])ccc2N1` [5-(2-chlorophenyl)-7-nitro-1,3-dihydro-2H-1,4-benzodiazepin-2-one], the pKi was 5.29 and 5.54 and 5.10.

By pKi is commonly meant the Ki on a negative log10 scale, so that one unit is a factor of ten. A high value points to a small Ki.
